44 compounds from patent publication US9656971B2, “COMT inhibitors” (Hoffmann-La Roche Inc., priority 2012, dated 2017) can be followed below.

The structures appear in SMILES notation. Counter-ions that a name gives are not always drawn. Like-named read-outs stand apart in the source and are kept apart here.

This experiment concerns the target T1, Rec. human COMT (Homo sapiens, UniProt P21964).
T1 sequence (P21964 1-271): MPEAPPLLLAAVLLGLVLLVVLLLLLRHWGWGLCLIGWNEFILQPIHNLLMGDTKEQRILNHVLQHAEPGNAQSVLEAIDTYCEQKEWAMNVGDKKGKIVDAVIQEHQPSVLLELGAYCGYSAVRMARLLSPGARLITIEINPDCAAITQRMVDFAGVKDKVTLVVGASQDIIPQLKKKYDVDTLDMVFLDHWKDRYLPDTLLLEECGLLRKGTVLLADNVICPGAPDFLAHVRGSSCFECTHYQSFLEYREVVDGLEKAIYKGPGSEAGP
Kind of experiment: COMT-Fluorescence Assay. In kind it is biochemical. To be noted: rec. human COMT 25 nM, 4-Nitrocatechol-Alexa488 200 nM, SAM 500 nM. The protocol: This intramolecular interaction is disturbed if the 4-Nitrocatechol is methylated. […] This increase of fluorescence intensity can be followed in a kinetic measurement. The slope in the linear range of the kinetic is calculated. An inhibitor compound decreases the slope.
Signal [rfu/min]=(rfu(end-point)−rfu(startpoint))/incubation_time_#2

[1] abbreviates: COMT-fluorescence assay, read-out: IC50.

What is called IC50 is the concentration at which inhibition is half-maximal. Take `O=c1[nH]cnc2c(O)c(Cl)c(-c3ccc(F)cc3)cc12` [Example 245, 7-Chloro-6-(4-fluorophenyl)-8-hydroxyquinazolin-4(3H)-one]: the IC50 under setting [1] came to 730 nM.

For the compound `O=c1[nH]cnc2c(O)cc(-c3cncnc3)cc12` [Example 153, 8-Hydroxy-6-(pyrimidin-5-yl)quinazolin-4(3H)-one 2,2,2-trifluoroacetate], the 50% inhibitory concentration (IC50) under setting [1] is 190 nM.

Take `Cn1cnc(-c2cc(O)c3nc[nH]c(=O)c3c2)c1` [Example 75, 8-Hydroxy-6-(1-methyl-1H-imidazol-4-yl)quinazolin-4(3H)-one]: the concentration for half-maximal inhibition (IC50) under setting [1] turned out to be 510 nM.

In the case of `O=c1[nH]cnc2c(O)cc(-c3ccc(F)cc3)c(Cl)c12` [Example 101, 5-Chloro-6-(4-fluorophenyl)-8-hydroxyquinazolin-4(3H)-one], under setting [1], the 50% inhibitory concentration (IC50) is 10 nM.

As for `O=c1[nH]cnc2c(O)cc(-c3ccc(F)cc3)c(F)c12` [Example 195, 5-Fluoro-6-(4-fluorophenyl)-8-hydroxyquinazolin-4(3H)-one], the IC50 under setting [1] came out at 10 nM.

Turning to `CSc1ccccc1-c1cc(O)c2nc[nH]c(=O)c2c1` [Example 223, 8-Hydroxy-6-(2-(methylthio)phenyl)quinazolin-4(3H)-one], the IC50 under setting [1] came out at 20 nM.

Consider `O=c1[nH]cnc2c(O)cc(-c3cccc(N4CCCC4)n3)cc12` [Example 63, 8-Hydroxy-6-(6-(pyrrolidin-1-yl)pyridin-2-yl)quinazolin-4(3H)-one], for which the IC50 under setting [1] was found to be 40 nM.

As for `O=c1[nH]cnc2c(O)cc(-c3ccc(Cl)cc3)cc12` [Example 131, 6-(4-Chlorophenyl)-8-hydroxyquinazolin-4(3H)-one], for the setting “IC50, COMT-fluorescence assay”, the IC50 came out at 40 nM.

`O=c1[nH]cnc2c(O)cc(Br)cc12` [Example 126, 6-Bromo-8-hydroxyquinazolin-4(3H)-one]: the IC50 under setting [1] turned out to be 140 nM.

Take `O=c1[nH]cnc2c(O)cc(-c3ccc(F)cc3)c(-c3ccnc(N4CCOCC4)c3)c12` [Example 59, 6-(4-Fluorophenyl)-8-hydroxy-5-(2-morpholinopyridin-4-yl)quinazolin-4(3H)-one]: the half-inhibitory concentration (IC50) under setting [1] was determined as 40 nM.

Turning to `O=c1[nH]cnc2c(O)cc(C3=CCOCC3)cc12` [Example 70, 6-(3,6-Dihydro-2H-pyran-4-yl)-8-hydroxyquinazolin-4(3H)-one], the IC50 under setting [1] amounted to 20 nM.

In the case of `O=c1[nH]cnc2c(O)cc(C(O)c3ccccc3)cc12` (centres unmarked) [Example 67, 8-Hydroxy-6-(hydroxy(phenyl)methyl)quinazolin-4(3H)-one], the IC50 under setting [1] was 7450 nM.

For the compound `Cc1ccc(-c2cc(O)c3nc[nH]c(=O)c3c2)c(C)n1` [Example 202, 6-(2,6-Dimethyl-pyridin-3-yl)-8-hydroxy-3H-quinazolin-4-one], the concentration for half-maximal inhibition (IC50) under setting [1] was found to be 20 nM.

On to `O=c1[nH]cnc2c(O)cc(-c3ccc(N4CCOCC4)cc3)cc12` [Example 142, 8-Hydroxy-6-(4-morpholin-4-yl-phenyl)-3H-quinazolin-4-one], for which, where the note is “IC50, COMT-fluorescence assay”, the IC50 stood at 10 nM.

As for `O=c1[nH]cnc2c(O)cc(-c3ccc(F)cc3)c(-c3ccncc3)c12` [Example 56, 6-(4-Fluorophenyl)-8-hydroxy-5-(pyridin-4-yl)quinazolin-4(3H)-one], under setting [1], the IC50 amounted to 10 nM.

With `O=c1[nH]cnc2c(O)cc(-c3ccccc3S(=O)(=O)N3CCCCC3)cc12` [Example 251, 8-Hydroxy-6-[2-(piperidine-1-sulfonyl)-phenyl]-3H-quinazolin-4-one], under setting [1], the IC50 came out at 740 nM.

For the compound `Cc1c(-c2cc(O)c3nc[nH]c(=O)c3c2)cnn1C` [Example 206, 6-(1,5-Dimethyl-1H-pyrazol-4-yl)-8-hydroxyquinazolin-4(3H)-one], under setting [1], the 50% inhibitory concentration (IC50) is 30 nM.

Take `O=c1[nH]cnc2c(O)cc(-c3ccccc3CO)c(Cl)c12` [Example 255, 5-Chloro-8-hydroxy-6-(2-hydroxymethyl-phenyl)-3H-quinazolin-4-one]: the IC50 under setting [1] was 120 nM.

With `O=C(c1ccccc1)c1ccccc1-c1cc(O)c2nc[nH]c(=O)c2c1` [Example 99, 6-(2-Benzoylphenyl)-8-hydroxyquinazolin-4(3H)-one], under setting [1], the IC50 worked out at 100 nM.

Regarding `CCc1cc(O)c2nc[nH]c(=O)c2c1` [Example 10, 6-Ethyl-8-hydroxyquinazolin-4(3H)-one 2,2,2-trifluoroacetate], the half-maximal inhibitory concentration (IC50) (IC50, COMT-fluorescence assay) was 1090 nM.

As to `O=c1[nH]cnc2c(O)c(Br)c(-c3ccc(F)cc3)c(Br)c12` [Example 34, 5,7-Dibromo-6-(4-fluorophenyl)-8-hydroxyquinazolin-4(3H)-one], under setting [1], the half-inhibitory concentration (IC50) was 170 nM.

Consider `Cc1cc(F)ccc1-c1cc(O)c2nc[nH]c(=O)c2c1` [Example 127, 6-(4-Fluoro-2-methylphenyl)-8-hydroxyquinazolin-4(3H)-one], for which, under setting [1], the IC50 came out at 20 nM.

As to `O=c1[nH]cnc2c(O)cc(-c3ccc(N4CCNCC4)nc3)cc12` [Example 184, 8-Hydroxy-6-(6-(piperazin-1-yl)pyridin-3-yl)quinazolin-4(3H)-one], the IC50 under setting [1] was determined as 20 nM.

`O=c1[nH]cnc2c(O)cc(-c3ccccc3N3CCOCC3)cc12` [Example 224, 8-Hydroxy-6-(2-morpholinophenyl)quinazolin-4(3H)-one] registered a 50% inhibitory concentration (IC50) (IC50, COMT-fluorescence assay) of 220 nM.

In the case of `Cc1ncccc1-c1cc(O)c2nc[nH]c(=O)c2c1F` [Example 198, 5-Fluoro-8-hydroxy-6-(2-methylpyridin-3-yl)quinazolin-4(3H)-one], under setting [1], the IC50 was 10 nM.

For `CN1CCN(C(=O)c2cc(-c3cc(O)c4nc[nH]c(=O)c4c3)n(C)n2)CC1` [Example 230, 8-Hydroxy-6-(1-methyl-3-(4-methylpiperazine-1-carbonyl)-1H-pyrazol-5-yl)quinazolin-4(3H)-one formate], the IC50 under setting [1] came out at 20 nM.

In the case of `Cc1cc(C(=O)N2CCCCC2)sc1-c1cc(O)c2nc[nH]c(=O)c2c1` [Example 97, 8-Hydroxy-6-(3-methyl-5-(piperidine-1-carbonyl)thiophen-2-yl)quinazolin-4(3H)-one], under setting [1], the concentration for half-maximal inhibition (IC50) was 10 nM.

With `COCCn1nccc1-c1cc(O)c2nc[nH]c(=O)c2c1` [Example 45, 8-Hydroxy-6-(1-(2-methoxyethyl)-1H-pyrazol-5-yl)quinazolin-4(3H)-one], the IC50 under setting [1] was 30 nM.

With `O=c1[nH]cnc2c(O)cc(-c3cccc4cccnc34)cc12` [Example 167, 8-Hydroxy-6-(quinolin-8-yl)quinazolin-4(3H)-one], the IC50 under setting [1] is 260 nM.

Regarding `O=c1[nH]cnc2c(O)ccc(Br)c12` [Example 1, 5-Bromo-8-hydroxyquinazolin-4(3H)-one], the IC50 under setting [1] was 500 nM.

For `CN(C)c1cccc(-c2cc(O)c3nc[nH]c(=O)c3c2)c1` [Example 148, 6-(3-Dimethylamino-phenyl)-8-hydroxy-3H-quinazolin-4-one], the IC50 under setting [1] stood at 10 nM.

With `COCc1ccc(C(=O)N2CCN(C)CC2)cc1-c1cc(O)c2nc[nH]c(=O)c2c1` [Example 233, 8-Hydroxy-6-[2-methoxymethyl-5-(4-methyl-piperazine-1-carbonyl)-phenyl]-3H-quinazolin-4-one; compound with formic acid], the concentration for half-maximal inhibition (IC50) under setting [1] stood at 1170 nM.

In the case of `Cc1onc(-c2ccccc2)c1-c1cc(O)c2nc[nH]c(=O)c2c1` [Example 76, 8-Hydroxy-6-(5-methyl-3-phenylisoxazol-4-yl)quinazolin-4(3H)-one], the concentration for half-maximal inhibition (IC50) under setting [1] came out at 4600 nM.

As to `CCOC(=O)c1cc(O)c2nc[nH]c(=O)c2c1` [Example 6, Ethyl 8-hydroxy-4-oxo-3,4-dihydroquinazoline-6-carboxylate], the IC50 under setting [1] is 20 nM.

Take `CS(=O)(=O)c1ccc(Cl)c(-c2cc(O)c3nc[nH]c(=O)c3c2)c1` [Example 48, 6-(2-Chloro-5-methanesulfonyl-phenyl)-8-hydroxy-3H-quinazolin-4-one]: the concentration for half-maximal inhibition (IC50) under setting [1] is 50 nM.

With `O=c1[nH]cnc2c(O)c(Cl)c(Br)cc12` [Example 246, 6-Bromo-7-chloro-8-hydroxyquinazolin-4(3H)-one], the IC50 under setting [1] turned out to be 1590 nM.

In the case of `CN(C)S(=O)(=O)n1cnc(-c2cc(O)c3nc[nH]c(=O)c3c2)c1` [Example 77, 4-(8-Hydroxy-4-oxo-3,4-dihydroquinazolin-6-yl)-N,N-dimethyl-1H-imidazole-1-sulfonamide], the 50% inhibitory concentration (IC50) under setting [1] was 50 nM.

On to `O=c1[nH]cnc2c(O)cc(C3CCCC3)cc12` [Example 18, 6-Cyclopentyl-8-hydroxyquinazolin-4(3H)-one], for which the 50% inhibitory concentration (IC50) under setting [1] came out at 900 nM.

For the compound `CN1CCC(CCOCc2ccccc2-c2cc(O)c3nc[nH]c(=O)c3c2)CC1` [Example 256, 8-Hydroxy-6-(2-((2-(1-methylpiperidin-4-yl)ethoxy)methyl)phenyl)quinazolin-4(3H)-one], the IC50 under setting [1] came to 36 nM.

Turning to `Cc1cc(-c2cc(O)c3nc[nH]c(=O)c3c2)c(C)s1` [Example 165, 6-(2,5-Dimethylthiophen-3-yl)-8-hydroxyquinazolin-4(3H)-one], the IC50 under setting [1] came out at 30 nM.

On to `Cc1nc(-c2cc(O)c3nc[nH]c(=O)c3c2)cs1` [Example 85, 8-Hydroxy-6-(2-methylthiazol-4-yl)quinazolin-4(3H)-one], for which the 50% inhibitory concentration (IC50) under setting [1] amounted to 170 nM.

For the compound `O=c1[nH]cnc2c(O)cc(-c3cccnc3O)cc12` [Example 180, 8-Hydroxy-6-(2-hydroxypyridin-3-yl)quinazolin-4(3H)-one], the half-maximal inhibitory concentration (IC50) under setting [1] turned out to be 270 nM.

Turning to `Cc1ccc(C)c2c1C=C(c1cc(O)c3nc[nH]c(=O)c3c1)CC2` [Example 19, 6-(5,8-dimethyl-3,4-dihydro-naphthalen-2-yl)-8-hydroxy-3H-quinazolin-4-one], the half-maximal inhibitory concentration (IC50) under setting [1] came out at 80 nM.

Take `CC(C)Cc1cc(O)c2nc[nH]c(=O)c2c1` [Example 17, 8-Hydroxy-6-isobutylquinazolin-4(3H)-one]: the concentration for half-maximal inhibition (IC50) under setting [1] is 1100 nM.
